Drawing on publication PMC9963887, “Towards Radiolabeled EGFR-Specific Peptides: Alternatives to GE11” (Pharmaceuticals, 2023), this text covers logD and half-life for 11 compounds.

The structures appear in SMILES notation. Like-named read-outs stand apart in the source and are kept apart here. Where a SMILES comes first, the peptide text is derived from it. Bridges are numbered along the chain shown (N, C = ends). [ ]: non-standard residue; d: D form. The star is where a group is joined. X1 = O=C(O)CN1CCN(CC(=O)O)CCN([C@H](CCC(=O)*)C(=O)O)CC1; PEG6 = NCCOCCOCCOCCOCCOCCOCCC(=O)O

Series [1] in a line: logD(7.4) determination by partition between 1-octanol and phosphate buffer pH 7.4. Type of series: physicochemical. The source says: For peptidic radiotracers, hydrophilicity is an important parameter as it can enable the initial assessment of the route by which the radioligand is metabolized and excreted. The commonly determined measure for the hydrophilicity/lipophilicity profile of a radiotracer is the determination of its logD(7.4) value and is investigated by partition experiments between an aqueous phosphate buffer phase at pH 7.4 and 1-octanol. For [^68Ga]Ga-1–[^68Ga]Ga-11, logD(7.4) values of −3.44 ± 0.08 ([^68Ga]Ga-1), −3.51 ± 0.22 ([^68Ga]Ga-2), −3.92 ± 0.09 ([^68Ga]Ga-3), −4.01 ± 0.13 ([^68Ga]Ga-4), −3.91 ± 0.06 ([^68Ga]Ga-5), −3.86 ± 0.11 ([^68Ga]Ga-6), −3.03 ± 0.20 ([^68Ga]Ga-7), −3.16 ± 0.11 ([^68Ga]Ga-8), −2.93 ± 0.08 ([^68Ga]Ga-9), −3.92 ± 0.09 ([^68Ga]Ga-10) and −3.98 ± 0.06 ([^68Ga]Ga-11) were obtained in these partition experiments. This high hydrophilicity of the tracers can be considered beneficial, as it should result in low, non-specific liver accumulation of the agents. This is advantageous with regard to the visualization of malignant liver lesions (especially hepatocellular carcinomas (HCCs) and liver metastases of colon carcinoma), which mostly overexpress the EGFR [46, 47] and, thus, represent an important area of application of an EGFR-specific peptidic radiotracer.
Determination of the logD(7.4) values of [^68Ga]Ga-1–[^68Ga]Ga-11. The aqueous phasepH7.4/1-octanol partition coefficient (logD(7.4)) of the developed radiotracers was determined by addition of a solution of the respective radiolabeled peptide (5 µL, 0.5–2 MBq) to a mixture of 1-octanol (800 µL) and phosphate buffer (0.05 M, pH 7.4, 795 µL). The mixtures were vigorously shaken for 5 min on a mechanical shaker and subsequently centrifuged at 13,000 rpm (12,100× g) for 2 min to achieve complete phase separation. 125 µL of each phase were taken and the amount of radioactivity in each phase was determined by γ-counting. Experiments were performed thrice, each in triplicate.

Series [2] is described as follows: stability towards degradation by human serum peptidases. The format is in vitro ADME. Conditions: pooled human serum, 37 °C, incubation up to 90 min, intact tracer by radio-HPLC; read-out: Calculated Half-Life in Human Serum. As for the experimental part: For the applicability of radiopeptides, their stability towards degradation by human serum peptidases is of importance as a low stability towards metabolization interferes with successful target visualization. Thus, the stability of the radiopeptides [^68Ga]Ga-1–[^68Ga]Ga-11 against degradation was determined by incubation with commercially available pooled human serum of healthy donors at 37 °C for 0, 15, 30, 45, 60, 75 and 90 min. At these time points, the fraction of the intact radiopeptides was again determined by analytical radio-HPLC, and the serum half-life of each radioligand was calculated.
Determination of the stability of [^68Ga]Ga-1–[^68Ga]Ga-11 towards degradation by human serum peptidases. A sample of the respective radiolabeled peptide (125 µL, 10–30 MBq, pH 7.4) was added to commercially available pooled human serum (500 µL) and warmed to 37 °C. At defined time-points (t = 0, […]), 75 µL of the mixture were added to 75 µL ice-cold ethanol, further cooled on ice for 5 min, and centrifuged at 13,000 rpm (12,100× g) for 90 s. The supernatant was collected, the activity of the supernatant and the precipitate measured, where after the supernatant was analyzed by analytical radio-HPLC and the amount of intact tracer was quantified. Experiments were performed thrice for each radioligand.

The mark [3] stands for this setting: 1-octanol / phosphate buffer 0.05 M, read-out: logD(7.4).

As a reminder, the logD is the decadic logarithm of the distribution of all forms, ionised or not, between an organic phase and buffer at a given pH. By half-life is commonly meant how long it takes for the measured level to halve. In the case of `CC[C@H](C)[C@H](NC(=O)[C@@H](NC(=O)[C@H](CC(N)=O)NC(=O)[C@H](CCC(N)=O)NC(=O)[C@@H]1CCCN1C(=O)[C@@H](NC(=O)[C@H](Cc1ccc(O)cc1)NC(=O)CNC(=O)[C@H](Cc1ccc(O)cc1)NC(=O)[C@H](Cc1c[nH]c2ccccc12)NC(=O)[C@H](Cc1c[nH]cn1)NC(=O)[C@H](Cc1ccc(O)cc1)NC(=O)CCOCCOCCOCCOCCOCCOCCNC(=O)CC[C@H](C(=O)O)N1CCN(CC(=O)O)CCN(CC(=O)O)CC1)[C@@H](C)O)C(C)C)C(=O)O` [[^68Ga]Ga-1, metal not drawn], the logD in series [1] (setting [3]) is -3.44 ± 0.08. Besides, the half-life in series [2] was 4.928 ± 0.045 h.

Take `CC[C@H](C)[C@H](NC(=O)[C@@H]1CCCN1C(=O)[C@H](Cc1ccc(O)cc1)NC(=O)[C@H](CO)NC(=O)CCOCCOCCOCCOCCOCCOCCNC(=O)CC[C@H](C(=O)O)N1CCN(CC(=O)O)CCN(CC(=O)O)CC1)C(=O)N1CCC[C@H]1C(=O)N[C@@H](CC(=O)O)C(=O)N[C@H](C(=O)O)[C@@H](C)O` [[^68Ga]Ga-3, metal not drawn] ({X1-PEG6}-SYPIPDT-OH; C-terminus assumed): the logD in series [1] (setting [3]) is -3.92 ± 0.09. For the same compound, the half-life in series [2] was 135 ± 5.12 h.

On to `C[C@@H](O)[C@H](NC(=O)[C@H](CCC(N)=O)NC(=O)[C@H](CC(=O)O)NC(=O)[C@H](CO)NC(=O)[C@@H](NC(=O)[C@H](Cc1c[nH]cn1)NC(=O)CCOCCOCCOCCOCCOCCOCCNC(=O)CC[C@H](C(=O)O)N1CCN(CC(=O)O)CCN(CC(=O)O)CC1)[C@@H](C)O)C(=O)N[C@@H](CC(N)=O)C(=O)O` [[^68Ga]Ga-4, metal not drawn] ({X1-PEG6}-HTSDQTN-OH), for which the logD in series [1] (setting [3]) is -4.01 ± 0.13. Further, in series [2], the half-life was 40.5 ± 0.645 h.

With `CSCC[C@H](NC(=O)[C@@H]1CCCN1C(=O)[C@@H](N)Cc1ccccc1)C(=O)N[C@@H](Cc1ccccc1)C(=O)N[C@@H](CC(N)=O)C(=O)N[C@@H](Cc1c[nH]cn1)C(=O)N[C@@H](Cc1c[nH]c2ccccc12)C(=O)N[C@@H](CCC(=O)O)C(=O)N[C@@H](CCC(N)=O)C(=O)N[C@@H](Cc1c[nH]c2ccccc12)C(=O)N1CCC[C@H]1C(=O)N1CCC[C@H]1C(=O)NCCOCCOCCOCCOCCOCCOCCC(=O)N[C@@H](CCCCNC(=O)CC[C@H](C(=O)O)N1CCN(CC(=O)O)CCN(CC(=O)O)CC1)C(N)=O` [[^68Ga]Ga-7, metal not drawn] (H-FPMFNHWEQWPP[PEG6]K(X1)-NH2), the logD in series [1] (setting [3]) is -3.03 ± 0.2. In addition, the half-life in series [2] is 1.11 ± 0.05 h.

Consider `CC(C)C[C@H](NC(=O)[C@H](Cc1c[nH]c2ccccc12)NC(=O)[C@H](Cc1ccccc1)NC(=O)[C@H](CCC(N)=O)NC(=O)[C@H](C)NC(=O)[C@H](CO)NC(=O)[C@H](CC(=O)O)NC(=O)[C@@H]1CCCN1C(=O)[C@H](CCCNC(=N)N)NC(=O)[C@@H](N)CC(N)=O)C(=O)N[C@@H](Cc1c[nH]cn1)C(=O)N[C@@H](Cc1c[nH]cn1)C(=O)NCCOCCOCCOCCOCCOCCOCCC(=O)N[C@@H](CCCCNC(=O)CC[C@H](C(=O)O)N1CCN(CC(=O)O)CCN(CC(=O)O)CC1)C(N)=O` [[^68Ga]Ga-6, metal not drawn] (H-NRPDSAQFWLHH[PEG6]K(X1)-NH2), for which the logD in series [1] (setting [3]) is -3.86 ± 0.11. The half-life in series [2] was 17.7 ± 0.717 h.

For `C[C@H](NC(=O)[C@H](CCC(=O)O)NC(=O)[C@H](Cc1ccc(O)cc1)NC(=O)[C@H](CC(=O)O)NC(=O)[C@H](Cc1ccc(O)cc1)NC(=O)[C@H](Cc1ccccc1)NC(=O)CNC(=O)[C@@H]1CCCN1C(=O)CNC(=O)[C@H](CC(N)=O)NC(=O)[C@H](CCC(=O)O)NC(=O)CNC(=O)[C@H](CO)NC(=O)[C@@H](N)Cc1c[nH]c2ccccc12)C(=O)NCCOCCOCCOCCOCCOCCOCCC(=O)N[C@@H](CCCCNC(=O)CC[C@H](C(=O)O)N1CCN(CC(=O)O)CCN(CC(=O)O)CC1)C(N)=O` [[^68Ga]Ga-11, metal not drawn] (H-WSGENGPGFYDYEA[PEG6]K(X1)-NH2), the logD in series [1] (setting [3]) was -3.98 ± 0.06. Moreover, the half-life in series [2] was 9.37 ± 0.115 h.

In turn, `CC(C)C[C@H](NC(=O)CCOCCOCCOCCOCCOCCOCCNC(=O)CC[C@H](C(=O)O)N1CCN(CC(=O)O)CCN(CC(=O)O)CC1)C(=O)N[C@@H](C)C(=O)N[C@@H](CCCNC(=N)N)C(=O)N[C@@H](CC(C)C)C(=O)N[C@@H](CC(C)C)C(=O)N[C@H](C(=O)O)[C@@H](C)O` [[^68Ga]Ga-2, metal not drawn] registered a logD in series [1] of -3.51 ± 0.22.

Turning to `CSCC[C@H](NC(=O)[C@@H]1CSSC[C@H](NC(=O)[C@@H](N)CCC(=O)O)C(=O)N2CCC[C@H]2C(=O)N[C@@H](CC(C)C)C(=O)N[C@@H](CO)C(=O)N[C@@H](Cc2c[nH]cn2)C(=O)N[C@@H](CC(=O)O)C(=O)NCC(=O)N[C@@H](Cc2ccc(O)cc2)C(=O)N[C@@H](CS)C(=O)N[C@@H](CC(C)C)C(=O)N[C@@H](Cc2c[nH]cn2)C(=O)N[C@@H](CC(=O)O)C(=O)NCC(=O)N[C@@H](C(C)C)C(=O)N1)C(=O)NCCOCCOCCOCCOCCOCCOCCC(=O)N[C@@H](CCCCNC(=O)CC[C@H](C(=O)O)N1CCN(CC(=O)O)CCN(CC(=O)O)CC1)C(N)=O` [[^68Ga]Ga-8, metal not drawn] (H-ECPLSHDGYCLHDGVCM[PEG6]K(X1)-NH2; disulfide 2-16), in series [1], the logD is -3.16 ± 0.11.

Turning to `CC[C@H](C)[C@@H]1NC(=O)[C@H](Cc2ccc(O)cc2)NC(=O)CNC(=O)[C@H](C(C)C)NC(=O)[C@H](C(C)C)NC(=O)[C@@H](NC(=O)[C@@H](N)CC(N)=O)CSSC[C@@H](C(=O)N[C@@H](CCC(N)=O)C(=O)NCCOCCOCCOCCOCCOCCOCCC(=O)N[C@@H](CCCCNC(=O)CC[C@H](C(=O)O)N2CCN(CC(=O)O)CCN(CC(=O)O)CC2)C(N)=O)NC(=O)[C@H](CCCNC(=N)N)NC(=O)[C@H](CCC(=O)O)NC(=O)CNC1=O` [[^68Ga]Ga-10, metal not drawn] (H-NCVVGYIGERCQ[PEG6]K(X1)-NH2; disulfide 2-11), the logD in series [1] (setting [3]) is -3.92 ± 0.09. In addition, the half-life in series [2] is 11.7 ± 0.703 h.

As to `CC[C@H](C)[C@@H]1NC(=O)[C@H](Cc2ccc(O)cc2)NC(=O)[C@H](CCSC)NC(=O)[C@H](CS)NC(=O)[C@H](C(C)C)NC(=O)CNC(=O)[C@H](CC(=O)O)NC(=O)[C@H](Cc2c[nH]cn2)NC(=O)[C@H](CC(C)C)NC(=O)[C@@H](NC(=O)[C@@H](N)Cc2ccc(O)cc2)CSSC[C@@H](C(=O)N[C@@H](CC(N)=O)C(=O)NCCOCCOCCOCCOCCOCCOCCC(=O)N[C@@H](CCCCNC(=O)CC[C@H](C(=O)O)N2CCN(CC(=O)O)CCN(CC(=O)O)CC2)C(N)=O)NC(=O)[C@H](C)NC(=O)[C@H](Cc2ccc(O)cc2)NC(=O)[C@H](CCCCN)NC(=O)[C@H](CC(=O)O)NC(=O)[C@H](CC(C)C)NC(=O)[C@H](C)NC(=O)[C@H](CCC(=O)O)NC1=O` [[^68Ga]Ga-9, metal not drawn] (H-YCLHDGVCMYIEALDKYACN[PEG6]K(X1)-NH2; disulfide 2-19; N-terminus assumed), the logD in series [1] was -2.93 ± 0.08.

Consider `N=C(N)NCCC[C@H](NC(=O)[C@@H](N)CCC(N)=O)C(=O)N[C@@H](Cc1c[nH]cn1)C(=O)N[C@@H](CCCCN)C(=O)N1CCC[C@H]1C(=O)N[C@@H](CCCNC(=N)N)C(=O)N[C@@H](CCC(=O)O)C(=O)NCCOCCOCCOCCOCCOCCOCCC(=O)N[C@@H](CCCCNC(=O)CC[C@H](C(=O)O)N1CCN(CC(=O)O)CCN(CC(=O)O)CC1)C(N)=O` [[^68Ga]Ga-5, metal not drawn] (H-QRHKPRE[PEG6]K(X1)-NH2), for which, in series [1] (setting [3]), the logD is -3.91 ± 0.06.
